Some test systems named below: A498; A549; ACHN; DU-145; EKVX; HCC 2998; HT-29; KM12; LOX IMVI; MDA-MB-231; MDA-MB-435; MOLT-4; Malme-3M; NCI-H522; OVCAR-4; PC-3; SK-MEL-2; SN12C; TK-10; UACC-62.
What all share (assay): growth of human tumour cells (NCI), 48 h

SMILES strings stand for the structures.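 Following 48 hours of exposure in 96-well plates, responses at five concentrations were used to interpolate endpoints linearly. Abbreviation: GI50, concentration required for 50% inhibition of growth.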 Activity calls are given as the source filed them. No stated cut-off is given here; in the data, active = GI50 up to about 1.1 µM and inactive = higher. A value given as a limit tells only on which side of the number the result lay.

Regarding `COc1cc2c3c4[n+](cc2c(OC)c1OC)CCC4CCC3` (stereo not given), the GI50 was > 100 µM (inactive) with A498; > 100 µM (inactive) in the assay with A549; > 100 µM (inactive) with ACHN; > 100 µM (inactive) in the assay on DU-145; > 100 µM (inactive) in the assay on EKVX; > 93.1 µM (inactive) in the assay with HCC 2998. For the same molecule, the GI50 with HT-29 is > 100 µM (inactive); with KM12, 47.4 µM (inactive); in the assay with LOX IMVI it was > 100 µM (inactive); with MDA-MB-231, > 100 µM (inactive); in the assay with MDA-MB-435, > 100 µM (inactive); in the assay on MOLT-4, > 100 µM (inactive). Also, the GI50 is 20.4 µM (inactive) with Malme-3M; 51.3 µM (inactive) in the assay with NCI-H522; > 100 µM (inactive) with OVCAR-4; > 100 µM (inactive) in the assay with PC-3; > 95.1 µM (inactive) in the assay on SK-MEL-2; > 100 µM (inactive) in the assay with SN12C. Moreover, the GI50 in the assay on TK-10 and in the assay on UACC-62 was > 100 µM (inactive) throughout.
Take `Cc1cc(O)nc(NN2C(Cl)C(=O)C2c2ccc(O)cc2)n1` (stereo not given): the GI50 in the assay on A498 is 9.75 µM (inactive); in the assay on A549, 13.6 µM (inactive); in the assay on ACHN, 8.07 µM (inactive); in the assay with DU-145, 10.9 µM (inactive); in the assay with EKVX, 13.6 µM (inactive); with HCC 2998, 11.2 µM (inactive). The GI50 in the assay on HT-29 was 6.65 µM (inactive); with KM12, 8.63 µM (inactive); in the assay on LOX IMVI it was 2.69 µM (inactive); in the assay with MDA-MB-231 it was 14 µM (inactive); with MDA-MB-435 it was 8.47 µM (inactive); with MOLT-4, 5.33 µM (inactive). Moreover, the GI50 with Malme-3M was 14.4 µM (inactive); with NCI-H522, 15 µM (inactive); in the assay on OVCAR-4, 6.95 µM (inactive); in the assay on PC-3, 13.2 µM (inactive); in the assay on SK-MEL-2, 12.6 µM (inactive); in the assay with SN12C, 11.2 µM (inactive). For the same molecule, the GI50 with TK-10 was 14.9 µM (inactive); in the assay on UACC-62 it was 5.04 µM (inactive).
For the molecule `C=C1C(=O)OC2CC(C)C(/C=C/C(C)=O)=CCC12` (stereo not given), the GI50 in the assay with A498, in the assay on A549, with ACHN, with DU-145, with EKVX and in the assay on HCC 2998 was > 100 µM (inactive) in each case. Moreover, the GI50 in the assay with HT-29 was > 100 µM (inactive); in the assay on KM12, > 100 µM (inactive); in the assay on LOX IMVI, > 100 µM (inactive); with MDA-MB-231 it was > 100 µM (inactive); with MDA-MB-435 it was > 100 µM (inactive); in the assay with MOLT-4, 83 µM (inactive). Further, the GI50 in the assay on Malme-3M was 10.7 µM (inactive); in the assay on NCI-H522, 29.8 µM (inactive); in the assay with OVCAR-4, > 100 µM (inactive); with PC-3, > 100 µM (inactive); with SK-MEL-2, > 100 µM (inactive); in the assay with SN12C it was > 100 µM (inactive). For the same molecule, the GI50 in the assay on TK-10 and in the assay on UACC-62 was > 100 µM (inactive) each time.
On to `CCCCn1c2c(n(CCCC)c1=S)-c1c(n(CCCC)c(=S)n1CCCC)SSc1c(n(CCCC)c(=S)n1CCCC)-c1c(n(CCCC)c(=S)n1CCCC)SSc1c(n(CCCC)c(=S)n1CCCC)-c1c(n(CCCC)c(=S)n1CCCC)SS2`, for which the GI50 with A498 was > 50 µM (inactive); with A549 it was > 50 µM (inactive); with ACHN, 2.36 µM (inactive); with DU-145, 29.8 µM (inactive); with EKVX, 5.37 µM (inactive); with HCC 2998, 12.6 µM (inactive). Also, the GI50 was 11.6 µM (inactive) in the assay on HT-29; 19.4 µM (inactive) in the assay on KM12; 4 µM (inactive) in the assay with LOX IMVI; 2.24 µM (inactive) in the assay on MDA-MB-231; 11.3 µM (inactive) with MDA-MB-435; 2.32 µM (inactive) in the assay with MOLT-4. Moreover, the GI50 is 1.57 µM (inactive) in the assay on Malme-3M; 0.78 µM (active) with NCI-H522; 1.73 µM (inactive) in the assay on OVCAR-4; 2.04 µM (inactive) in the assay with PC-3; 10.7 µM (inactive) with SK-MEL-2; 2.8 µM (inactive) in the assay on SN12C. The GI50 in the assay on TK-10 is > 30.2 µM (inactive); in the assay with UACC-62 it was 3.37 µM (inactive).
`Cc1ccc2nc(/C=N/c3ccc(Cl)cc3)cc(C)c2c1`: the GI50 is > 80.4 µM (inactive) in the assay with A498; 1.24 µM (inactive) with A549; 0.128 µM (active) with ACHN; 0.659 µM (active) in the assay on DU-145; 14.4 µM (inactive) in the assay with EKVX; 0.574 µM (active) in the assay with HCC 2998. For the same molecule, the GI50 in the assay on HT-29 is 2.64 µM (inactive); with KM12 it was 0.269 µM (active); in the assay on LOX IMVI, 0.329 µM (active); in the assay with MDA-MB-231 it was 4.94 µM (inactive); with MDA-MB-435, 1.04 µM (active); in the assay with MOLT-4, 1.12 µM (inactive). Further, the GI50 was 2.44 µM (inactive) with Malme-3M; 2.65 µM (inactive) in the assay on NCI-H522; 20.3 µM (inactive) in the assay with OVCAR-4; 1.9 µM (inactive) in the assay on PC-3; 25.8 µM (inactive) with SK-MEL-2; 5.21 µM (inactive) in the assay on SN12C. Besides, the GI50 in the assay with TK-10 was 2.9 µM (inactive); in the assay on UACC-62, 0.133 µM (active).
As to `N#CC(Cl)CS(=O)(=O)c1ccccc1` (stereo not given), the GI50 in the assay on A498 is 13.6 µM (inactive); in the assay on A549, 20.1 µM (inactive); in the assay on ACHN it was 4.41 µM (inactive); in the assay on DU-145, 17.5 µM (inactive); in the assay on EKVX, 18.6 µM (inactive); in the assay on HCC 2998 it was 15.8 µM (inactive). The GI50 is 7.66 µM (inactive) in the assay on HT-29; 17.5 µM (inactive) with KM12; 7.14 µM (inactive) in the assay with LOX IMVI; 19.7 µM (inactive) with MDA-MB-231; 17.1 µM (inactive) with MDA-MB-435; 1.34 µM (inactive) in the assay with MOLT-4. The GI50 in the assay on Malme-3M is 2.07 µM (inactive); in the assay on NCI-H522, 0.681 µM (active); in the assay with OVCAR-4, 2.03 µM (inactive); with PC-3, 17.5 µM (inactive); in the assay with SK-MEL-2, 16.1 µM (inactive); in the assay on SN12C, 16.5 µM (inactive). Further, the GI50 is 3.7 µM (inactive) in the assay with TK-10 and 12.2 µM (inactive) in the assay on UACC-62.
As to `C=C(C)[C@@H](C(=O)OC)N1C(=O)c2ccccc2C1=O`, the GI50 with A498, in the assay with A549, in the assay with ACHN, with DU-145, in the assay on EKVX and in the assay with HCC 2998 was > 100 µM (inactive) in each case. Besides, the GI50 with HT-29, in the assay on KM12, in the assay with LOX IMVI, in the assay with MDA-MB-231, in the assay with MDA-MB-435 and with MOLT-4 was > 100 µM (inactive) each time. For the same molecule, the GI50 in the assay on Malme-3M, in the assay on NCI-H522, in the assay on OVCAR-4, in the assay on PC-3, in the assay on SK-MEL-2 and in the assay on SN12C was > 100 µM (inactive) throughout. Further, the GI50 in the assay on TK-10 and in the assay with UACC-62 was > 100 µM (inactive) each time.
Regarding `OC(CCN1CCN(CCOC(c2ccc(F)cc2)c2ccc(F)cc2)CC1)c1ccccc1` (stereo not given), the GI50 was 5.06 µM (inactive) in the assay with A498; 16.4 µM (inactive) in the assay with A549; 12.9 µM (inactive) in the assay on ACHN; 17.3 µM (inactive) in the assay on DU-145; 12.9 µM (inactive) with EKVX; 3.52 µM (inactive) in the assay on HCC 2998. In addition, the GI50 is 8.65 µM (inactive) with HT-29; 18.5 µM (inactive) in the assay with KM12; 14.6 µM (inactive) with LOX IMVI; 14.6 µM (inactive) in the assay with MDA-MB-231; 17.8 µM (inactive) in the assay with MDA-MB-435; 12.1 µM (inactive) with MOLT-4. Moreover, the GI50 in the assay on Malme-3M was 13.4 µM (inactive); in the assay on NCI-H522 it was 14.4 µM (inactive); in the assay with OVCAR-4, 16.1 µM (inactive); in the assay on PC-3, 13.6 µM (inactive); in the assay with SK-MEL-2, 15.3 µM (inactive); with SN12C it was 15.2 µM (inactive). Moreover, the values for the GI50 with TK-10 and in the assay with UACC-62 were 15 µM (inactive) and 14.5 µM (inactive), respectively.
Consider `CCOC(=O)/C=C(/C(=O)OCC)n1cc(C)c(=O)[nH]c1=O`, for which the GI50 with A498 is 12.9 µM (inactive); in the assay with A549 it was 16.4 µM (inactive); in the assay on ACHN it was 2.72 µM (inactive); with DU-145, 16.1 µM (inactive); in the assay on EKVX it was 3.33 µM (inactive); in the assay with HCC 2998 it was 5.71 µM (inactive). Besides, the GI50 in the assay with HT-29 is 4.92 µM (inactive); with KM12, 14.2 µM (inactive); in the assay with LOX IMVI, 2.19 µM (inactive); in the assay with MDA-MB-231, 4.51 µM (inactive); in the assay with MDA-MB-435, 3.07 µM (inactive); in the assay with MOLT-4, 2.44 µM (inactive). Also, the GI50 was 2.29 µM (inactive) in the assay with Malme-3M; 0.792 µM (active) in the assay on NCI-H522; 4.93 µM (inactive) in the assay with OVCAR-4; 8.15 µM (inactive) in the assay with PC-3; 7 µM (inactive) in the assay with SK-MEL-2; 5.06 µM (inactive) in the assay with SN12C. The GI50 was 2.52 µM (inactive) with TK-10 and 5.14 µM (inactive) with UACC-62.
Take `Cc1cc(C)c2c(O)cc(-c3ccc4ccccc4c3)nc2n1`: the GI50 with A498 is 3.9 µM (inactive); in the assay on A549 it was 12.5 µM (inactive); with ACHN it was 46 µM (inactive); with DU-145, 21.7 µM (inactive); in the assay with EKVX, 29.5 µM (inactive); in the assay on HCC 2998, 16.3 µM (inactive). In addition, the GI50 in the assay on HT-29 was 12.1 µM (inactive); in the assay with KM12, 6.04 µM (inactive); with LOX IMVI it was 17.9 µM (inactive); in the assay with MDA-MB-231, 23.1 µM (inactive); with MDA-MB-435, 2.92 µM (inactive); in the assay with MOLT-4, 3.66 µM (inactive). Also, the GI50 is 21.6 µM (inactive) in the assay with Malme-3M; 21.4 µM (inactive) in the assay with NCI-H522; 14.6 µM (inactive) in the assay with OVCAR-4; 10.2 µM (inactive) in the assay on PC-3; 13.6 µM (inactive) with SK-MEL-2; 43.7 µM (inactive) in the assay with SN12C. For the same molecule, the GI50 with TK-10 is 31 µM (inactive); with UACC-62, 14.7 µM (inactive).

Values taken from ChEMBL document CHEMBL1201862, “PubChem BioAssay data set” (2004).
